Test results reported in patent US5665745A, “Heterocyclic compounds and their preparation and use” (Eli Lilly and Company, priority 1995, dated 1997).

target: muscarinic acetylcholine receptors; experiment: inhibition of specific binding of ^3 H-Oxotremorine-M (^3 H-Oxo); design: species or system rat (male Wistar; conditions: ^3 H-Oxotremorine 1.0 nM, rat cortex, 30 min. at 25° C.
How it was run: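 Rat cortex membranes (male Wistar) in 20 mM Hepes pH 7.4 incubated with 1.0 nM ^3H-Oxotremorine-M (final) and test compound for 30 min at 25 °C; arecoline defines non-specific binding. Bound radioactivity by filtration and scintillation counting; IC50 (nM) from a single concentration via Co/Cx mass-action formula, reflecting high- and medium-affinity sites.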

| SMILES | IC50 [nM] |
| --- | --- |
| CCCCCSc1nsnc1O[C@@H]1CN2CCC1CC2 [Compound 16, (S)-3-Pentylthio-4-(1-azabicyclo[2.2.2]octyl-3-oxy)-1,2,5-thiadiazole] | 6.4 |
| CCCCOc1nsnc1OCCN(C)C [Compound 33, 3-Butyloxy-4-(2-(dimethylamino)ethoxy)-1,2,5-thiadiazole] | 51 |
| CCCCOc1nsnc1OCC[N+](C)(C)C [Compound 35, 3-Butyloxy-4-(2-(trimethylamino)ethoxy)-1,2,5-thiadiazole iodide] | 23 |
| CCCCCSc1nsnc1O[C@H]1CN2CCC1CC2 [Compound 38, (R)-3-Pentylthio-4-(1-azabicyclo[2.2.2]octyl-3-oxy)-1,2,5-thiadiazole] | 1 |
| CCCCOc1nsnc1OC1CC2CCC(C1)N2C (stereo not drawn) [Compound 45] | 29 |
| O=C1CCCn2cccc21 [Compound 139, 1-azabicyclo[4.3.0]nona-6,8-diene-5-one] | 230 |

The remaining lines, values ahead:

| IC50 [nM] | SMILES |
| --- | --- |
| 69 | CCCCSc1nsnc1OC1CCN(C)CC1 [Compound 30, 3-Butylthio-4-(1-methyl-4-piperidyloxy)-1,2,5-thiadiazole] |
| 32 | CCCCOc1nsnc1OC[C@@H]1CCCN1C [Compound 31, (S)-3-Butyloxy-4-(1-methyl-2-pyrrolidinylmethyloxy)-1,2,5-thiadiazole] |
| 77 | CCCCOc1nsnc1OC[C@@H]1CCCN1 [Compound 32, (S)-3-Butyloxy-4-(2-pyrrolidinylmethyloxy)-1,2,5-thiadiazole] |
| 86 | CCCCSc1nsnc1OCCN(CC)CC [Compound 34, 3-Butylthio-4-(2-(diethylamino)ethoxy)-1,2,5-thiadiazole] |
| 204 | CCCCOc1nsnc1SCCN(C)C [Compound 36, 3-Butyloxy-4-(2-(dimethylamino)ethylthio)-1,2,5-thiadiazole] |
| 92 | CCCCOc1nsnc1OC1CNC1 [Compound 50, 3-Butyloxy-4-(3-azetidinyloxy)-1,2,5-thiadiazole] |
| 25 | CCCCSc1nsnc1OC1CNC1 [Compound 51, 3-Butylthio-4-(3-azetidinyloxy)-1,2,5-thiadiazole] |
| > 1000 | CCCCOc1nsnc1O[C@@H]1CCC[C@@H]1N [Compound 135, 3-Butyloxy-4-(cis-1R-2-aminocyclopentanoxy)-1,2,5-thiadiazole] |
| 7.39 | CCCCSc1nsnc1O[C@@H]1CN2CCC[C@H]1C2 [Compound 137, (5S, 6S)-endo-3-Butylthio-4-(1-azabicyclo[3.2.1]octyl-6-oxy)-1,2,5-thiadiazole] |
| 0.65 | CCCCSc1nsnc1O[C@H]1CN2CCC[C@@H]1C2 [Compound 138, (5R,6R)-endo-3-Butylthio-4-(1-azabicyclo[3.2.1]octyl-6-oxy)-1,2,5-thiadiazole] |
| 12 | CCCCSc1nsnc1OCCN(C)C [Compound 144, 3-Butylthio-4-(2-dimethylaminoethoxy)-1,2,5-thiadiazole] |

target: T1, muscarinic receptors (M1 -site, pirenzepine sensitive site) (Rattus norvegicus, UniProt P08482); experiment: inhibition of ^3 HPRZ (pirenzepine, [N-methyl-^3 H]) binding to rat cerebral cortex membranes; design: species or system rat (male Wistar; conditions: not given
T1 construct: from tissue; host or cells: cerebral cortex membranes of male Wistar rats
T1 sequence (P08482 1-460): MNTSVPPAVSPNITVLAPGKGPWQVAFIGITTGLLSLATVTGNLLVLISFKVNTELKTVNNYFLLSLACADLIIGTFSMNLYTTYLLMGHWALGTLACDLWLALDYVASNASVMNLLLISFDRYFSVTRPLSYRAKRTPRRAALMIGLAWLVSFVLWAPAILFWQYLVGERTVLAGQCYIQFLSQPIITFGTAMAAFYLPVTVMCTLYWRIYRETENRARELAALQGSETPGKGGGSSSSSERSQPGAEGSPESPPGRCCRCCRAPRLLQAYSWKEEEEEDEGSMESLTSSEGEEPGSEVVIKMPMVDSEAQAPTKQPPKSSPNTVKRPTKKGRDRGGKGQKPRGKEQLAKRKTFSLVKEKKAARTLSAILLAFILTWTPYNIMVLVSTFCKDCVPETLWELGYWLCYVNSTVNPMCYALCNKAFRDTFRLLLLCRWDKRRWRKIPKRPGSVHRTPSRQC
How it was run: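 Male Wistar rat cortex membranes in 20 mM Hepes pH 7.4 were incubated with 1.0 nM (final) [3H]pirenzepine for 60 min at 20° C; nonspecific binding was defined with 1 μg/mL atropine. Filtration and scintillation counting were used, and IC50 was calculated from a single concentration assuming mass-action kinetics.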

| SMILES | IC50 [nM] |
| --- | --- |
| CCCCCSc1nsnc1O[C@@H]1CN2CCC1CC2 [Compound 16, (S)-3-Pentylthio-4-(1-azabicyclo[2.2.2]octyl-3-oxy)-1,2,5-thiadiazole] | 2 |
| CCCCCSc1nsnc1O[C@H]1CN2CCC1CC2 [Compound 38, (R)-3-Pentylthio-4-(1-azabicyclo[2.2.2]octyl-3-oxy)-1,2,5-thiadiazole] | 1.9 |
| CCCCOc1nsnc1OC1CC2CCC(C1)N2C (stereo not drawn) [Compound 45] | 4.6 |

same assay, conditions: ^3 HPRZ 1.0 nM, rat cortex, 60 min. at 20° C.; read-out: ^3 HPRZ IC50 (head from b208 on: Pir IC-50)

| SMILES | IC50 [nM] |
| --- | --- |
| CCCCOc1nsnc1OCCN(C)C [Compound 33, 3-Butyloxy-4-(2-(dimethylamino)ethoxy)-1,2,5-thiadiazole] | 48 |
| CCCCOc1nsnc1OCC[N+](C)(C)C [Compound 35, 3-Butyloxy-4-(2-(trimethylamino)ethoxy)-1,2,5-thiadiazole iodide] | 33 |
| O=C1CCCn2cccc21 [Compound 139, 1-azabicyclo[4.3.0]nona-6,8-diene-5-one] | 145 |

Other lines, results leading:

| IC50 [nM] | SMILES |
| --- | --- |
| 19 | CCCCSc1nsnc1OC1CCN(C)CC1 [Compound 30, 3-Butylthio-4-(1-methyl-4-piperidyloxy)-1,2,5-thiadiazole] |
| 12 | CCCCOc1nsnc1OC[C@@H]1CCCN1C [Compound 31, (S)-3-Butyloxy-4-(1-methyl-2-pyrrolidinylmethyloxy)-1,2,5-thiadiazole] |
| 45 | CCCCOc1nsnc1OC[C@@H]1CCCN1 [Compound 32, (S)-3-Butyloxy-4-(2-pyrrolidinylmethyloxy)-1,2,5-thiadiazole] |
| 10 | CCCCSc1nsnc1OCCN(CC)CC [Compound 34, 3-Butylthio-4-(2-(diethylamino)ethoxy)-1,2,5-thiadiazole] |
| 217 | CCCCOc1nsnc1SCCN(C)C [Compound 36, 3-Butyloxy-4-(2-(dimethylamino)ethylthio)-1,2,5-thiadiazole] |
| 351 | CCCCOc1nsnc1OC1CNC1 [Compound 50, 3-Butyloxy-4-(3-azetidinyloxy)-1,2,5-thiadiazole] |
| 112 | CCCCSc1nsnc1OC1CNC1 [Compound 51, 3-Butylthio-4-(3-azetidinyloxy)-1,2,5-thiadiazole] |
| > 1000 | CCCCOc1nsnc1O[C@@H]1CCC[C@@H]1N [Compound 135, 3-Butyloxy-4-(cis-1R-2-aminocyclopentanoxy)-1,2,5-thiadiazole] |
| 2.1 | CCCCSc1nsnc1O[C@@H]1CN2CCC[C@H]1C2 [Compound 137, (5S, 6S)-endo-3-Butylthio-4-(1-azabicyclo[3.2.1]octyl-6-oxy)-1,2,5-thiadiazole] |
| 0.47 | CCCCSc1nsnc1O[C@H]1CN2CCC[C@@H]1C2 [Compound 138, (5R,6R)-endo-3-Butylthio-4-(1-azabicyclo[3.2.1]octyl-6-oxy)-1,2,5-thiadiazole] |
| 9 | CCCCSc1nsnc1OCCN(C)C [Compound 144, 3-Butylthio-4-(2-dimethylaminoethoxy)-1,2,5-thiadiazole] |

target: muscarinic receptor in the CNS; experiment: not given; conditions: first of three sites labeled (high affinity); cited from earlier work

| SMILES | Kd [nM] |
| --- | --- |
| C[N+](C)(C)CC#CCN1CCCC1=O [^3 H-Oxo] | 1.8 |

same assay, conditions: second of three sites labeled (medium affinity); cited from earlier work

| SMILES | Kd [nM] |
| --- | --- |
| C[N+](C)(C)CC#CCN1CCCC1=O [^3 H-Oxo] | 20 |

same assay, conditions: third of three sites labeled; read-out: affinity; cited from earlier work

| SMILES | Kd [nM] |
| --- | --- |
| C[N+](C)(C)CC#CCN1CCCC1=O [^3 H-Oxo] | 3000 |

system: M1 -sites; experiment: not given; conditions: background statement; cited from earlier work

| SMILES | selectivity for muscarinic receptor subtype |
| --- | --- |
| CN1CCN(CC(=O)N2c3ccccc3C(=O)Nc3cccnc32)CC1 [pirenzepine] | selective for M1 -sites |

system: M2 -sites; experiment: not given; conditions: background statement; cited from earlier work

| SMILES | interaction with M2 -sites |
| --- | --- |
| CN1CCN(CC(=O)N2c3ccccc3C(=O)Nc3cccnc32)CC1 [pirenzepine] | also interact with M2 -sites |
